From PMC6270304, “Synthesis, Structure and Cytotoxic Activity of New Acetylenic Derivatives of Betulin” (Molecules, 2013)
Values after ≈ are worked out from the molar mass of the structure shown.

Legend:
[1] = system: investigated cancer cell lines (T47D, CCRF/CEM, SW707, P388, Balb3T3); assay: cells; type: cell-based, human and murine; conditions: Mus musculus; all cell lines except leukemia P388; read-out: IC50 values range over investigated cell lines
Procedure: (§1) Cytotoxic activities of all newly synthesized compounds including betulin (1) were tested in SRB or MTT (in the case of leukemia cells) assay for their antiproliferative activity in vitro against three human cancer cell lines: SW707 (colorectal adenocarcinoma), CCRF/CEM (leukemia), T47D (breast cancer), and murine leukemia P388 as well as Balb3T3 normal fibroblasts cell lines. […] A value of less than 4 μg/mL was considered as an antiproliferative activity criterion for synthetic compounds [31].
(§2) The following established in vitro cell lines were applied: SW707 (human colorectal adenocarcinoma), CCRF/CEM (human leukemia), T47D (human breast cancer), P388 (mouse leukemia) and Balb3T3 (normal mouse fibroblasts). All lines were obtained from the American Type Culture Collection (Rockville, MD, USA) and maintained at the Cell Culture Collection of the Institute of Immunology and Experimental Therapy (Wroclaw, Poland).
(§3) Twenty-four hours before addition of the tested agents, the cells were plated in 96-well plates (Sarstedt, Numbrecht, Germany) at a density of 10^4 cells per well in 100 μL of culture medium. The cells were cultured in the opti-MEM medium supplemented with 2 mM glutamine (Gibco, Grand Island, NY, USA), streptomycin (50 μg/mL), penicillin (50 U/mL) (both antibiotics from Polfa, Tarchomin, Poland) and 5% fetal calf serum (Gibco). The cell cultures were maintained at 37 °C in humid atmosphere saturated with 5% CO2.
(§4) The compounds were dissolved in DMSO and culture medium (1:9) to the concentration of 1 mg/mL, and subsequently diluted in culture medium to reach the required concentrations (ranging from […]).
(§5) The in vitro cytotoxic effect of all agents was examined using the SRB assay for adherent cells and MTT assay for leukemia cells as described by Wietrzyk et al.. Each compound in given concentration was tested in triplicates in each experiment, which was repeated 3–5 times.

[2] = Antiproliferative assay in vitro (SRB); type: cell-based, mouse; conditions: mouse; Balb3T3 normal fibroblasts; SRB; Neg = negative in the concentration used; read-out: Cytotoxic activity IC50, Murine Balb3T3
Procedure: as §1, §2, §3, §4, §5

[3] = system: SW707 (human colorectal adenocarcinoma); assay: Antiproliferative assay in vitro (SRB); type: cell-based; conditions: Homo sapiens, SW707, read-out: Cytotoxic activity IC50, Human SW707
Procedure: as §1, §2, §3, §4, §5

[4] = system: T47D (human breast cancer); assay: Antiproliferative assay in vitro (SRB); type: cell-based; conditions: Homo sapiens, T47D, read-out: Cytotoxic activity IC50, Human T47D
Procedure: as §1, §2, §3, §4, §5

P388 (mouse leukemia) = assay: Antiproliferative assay in vitro (MTT); type: cell-based
Procedure: as §1, §2, §3, §4, §5

[5] = system: CCRF/CEM (human leukemia); assay: Antiproliferative assay in vitro (MTT); type: cell-based; conditions: Homo sapiens, CCRF-CEM, read-out: Cytotoxic activity IC50, Human CCRF/CEM
Procedure: as §1, §2, §3, §4, §5

SMILES: C=C(C)[C@@H]1CC[C@]2(CO)CC[C@]3(C)[C@H](CC[C@@H]4[C@@]5(C)CC[C@H](O)C(C)(C)[C@@H]5CC[C@]43C)[C@@H]12 [Compound 1, lup-20(29)-ene-3β,28-diol, reference compound]
- IC50 [1]: 10.9 to 47.3 µg/mL (≈ 24.6 to 107 µM)
- IC50 [2]: 47.3 ± 7.9 µg/mL (≈ 107 µM)
- IC50 [3]: 22.9 ± 15.4 µg/mL (≈ 51.7 µM)
- IC50 [4]: 32.4 ± 10.7 µg/mL (≈ 73.2 µM)
- IC50 (P388 (mouse leukemia); Mus musculus, P388, read-out: Cytotoxic activity IC50, Murine P388): 5.5 ± 3.3 µg/mL (≈ 12.4 µM)
- selectivity index (SI) (P388 (mouse leukemia); ratio IC50 of normal fibroblast (Balb3T3) / IC50 on P388): 8.6
- IC50 [5]: 10.9 ± 5.5 µg/mL (≈ 24.6 µM)
